Laboratory results reported in patent publication US10184933B2, “Compositions, systems and methods for gene expression noise drug screening and uses thereof” (priority 2013, dated 2019).
Entries after “also recorded” stand apart in the source; their conditions may differ. Structures can show the parent of a compound that is named as a salt. Where two headings read alike, the source gives them in different places.

Tests used:
Format in all cases: cell-based
HIV-1 LTR promoter [1] = assay: Two-reporter system (LTR-d2GFP and LTR-mCherry) noise measurement; settings: FIG. 6E; for transcriptional burst frequency (decreasing noise in mCherry): transcriptional modifiers; for d2GFP noise / mCherry noise: known transcriptional activators
Description: Without being bound by theory, a destabilized reporter is required to observe transcriptional noise with shorter time scales. GFP noise magnitude (quantified by the variance over the mean fluorescence squared, CV^2) and mean fluorescence were measured by high-throughput flow cytometry 24 hours post 10 uM drug exposure. To control for extrinsic variability in gene expression due to cell volume and state a conservative gating on the population forward versus side scatter was applied (See General Methods). A second LTR driving a long-lived mCherry reporter was integrated and screened alongside the destabilized reporter drug target to control for fluctuations in global resources and post-transcriptional noise sources (FIG. 6E).
To distinguish between compounds that primarily target transcription versus post-transcriptional processes and global resources (extrinsic noise) a second reporter of the LTR promoter driving a stable mCherry gene was included in the same targeted cell population used in the drug noise screen (FIG. 6E). The stable reporter averages out and is unaffected by fluctuations due to episodic transcription. Theory predicts that the destabilized d2GFP reporter can detect transcriptional bursting noise contributions (γp>>kon,koff, where γp is the fluorescent reporter degradation rate) while the two reporters together will move their noise magnitudes to changes in non-transcriptional noise sources. Filtering out non-transcriptional noise signatures of VM hits increases the probability for synergistic reactivation of latency. Noise from the two reporters was compared using the same processing as the LTR-d2GFP. The LTR-mCherry ΔCV^2 of the 85 selected VMs primarily land along the ΔCV^2 d2GFP axis. […]. Of these 25 compounds 15 were identified as modifiers of cell cycle, ATP, inflammation, post-translational modifications, and translation.
In addition to the GFP reporter in the LTR-d2GFP cell line, an LTR driving a long half-life mCherry reporter was present in the cell line. […] To remove compounds that altered CV^2 post transcriptionally, compounds that affected the CV^2 long-lived red reporter while conserving its mean mCherry level were removed. This method continues development of the original and decade-old 2-reporter system for intrinsic versus extrinsic noise measurements in bacteria (Elowitz et al., (2002) Science 297:1183-1186).

HIV-1 LTR promoter [2] = settings: for variability in gene expression (noise magnitude) / mean expression level: known transcriptional modulators applied to the isoclone target; for variability in gene expression (noise magnitude) / burst frequency / mean expression level: FIG. 6D; for burst frequency: activator drugs
[3] = test system: latent HIV-1 in JLat 8.6 cells
[4] = test system: latent HIV-1 in primary T-cells
Description: FIG. 18A schematically depicts a primary T-cell model of HIV-1 latency 48 h after reactivation with PMA or a subset of noise enhancers (% reactivation percentage is calculated relative to maximal reactivation potential). […] The horizontal line represents the mean calculated Bliss Independence Score (C. I. Bliss, Ann. Appl. Biol. 26:585-615 (1939)), a measure for strict additivity for all of the compounds. FIG. 18B schematically depicts stochastic simulations of noise suppression, which reduces noise without altering the mean expression level but limits reactivation induced by an activator. […] Details are described, e.g., in Example 10.

[5] = Pharmakon 1600 library, 10 uM, 24 hours, FIG. 10

Compound	identified as variability enhancer (VE) in noise screen (HIV-1 LTR promoter [2]; [5])	synergy in reactivation of HIV-1 latency [3]	further results
Nc1ncn([C@@H]2O[C@H](CO)[C@@H](O)[C@H]2O)c(=O)n1 [AZA, 4-Amino-1-(β-D-ribofuranosyl)1,3,5-triazin-2(1H)-one]	variability enhancers		transcriptional burst frequency (decreasing noise in mCherry) (HIV-1 LTR promoter [1]): increase transcriptional burst frequency; variability in gene expression (noise magnitude) (HIV-1 LTR promoter [2]): increase variability in gene expression; also recorded: variability enhancers
TNFα			d2GFP noise (HIV-1 LTR promoter [1]): decrease both mCherry and d2GFP noise; mCherry noise (HIV-1 LTR promoter [1]): decrease both mCherry and d2GFP noise; transcriptional burst frequency (decreasing noise in mCherry) (HIV-1 LTR promoter [1]): increase transcriptional burst frequency; burst frequency (HIV-1 LTR promoter [2]): increase burst frequency; mean expression level (HIV-1 LTR promoter [2]): increase mean expression level; variability in gene expression (noise magnitude) (HIV-1 LTR promoter [2]): decrease variability in gene expression; also recorded: decrease noise magnitude
COC(=O)Nc1nc2ccc(C(=O)c3ccccc3)cc2[nH]1 [V7, mebendazole]	variability enhancers	synergized	synergy with PMA [4]: reactivating half of the remaining cells that PMA alone did not reactivate; increased activation with PMA ([4]; 48 h, relative to maximal reactivation potential): ~20%
Nc1ccccc1NC(=O)c1ccc(CNC(=O)OCc2cccnc2)cc1 [MS-275, 3-pyridinylmethyl [[4-[[(2-aminophenyl)amino]carbonyl]phenyl]methyl]carbamate]			d2GFP noise (HIV-1 LTR promoter [1]): increase d2GFP noise; mCherry noise (HIV-1 LTR promoter [1]): decrease mCherry noise; transcriptional burst frequency (decreasing noise in mCherry) (HIV-1 LTR promoter [1]): increase transcriptional burst frequency; variability in gene expression (noise magnitude) (HIV-1 LTR promoter [2]): increase variability in gene expression; also recorded: variability enhancers
CCC/C=C/C=C/C(=O)O[C@H]1/C(=C/C(=O)OC)C[C@H]2C[C@H]([C@@H](C)O)OC(=O)C[C@H](O)C[C@@H]3C[C@H](OC(C)=O)C(C)(C)[C@](O)(C[C@@H]4C/C(=C/C(=O)OC)C[C@H](/C=C/C(C)(C)[C@]1(O)O2)O4)O3 [Bryostatin, bryostatin]			d2GFP noise (HIV-1 LTR promoter [1]): decrease both mCherry and d2GFP noise; mCherry noise (HIV-1 LTR promoter [1]): decrease both mCherry and d2GFP noise; transcriptional burst frequency (decreasing noise in mCherry) (HIV-1 LTR promoter [1]): increase transcriptional burst frequency; mean expression level (HIV-1 LTR promoter [2]): scored lower
CCCCCCCCCCCCCC(=O)O[C@@H]1[C@@H](C)[C@@]2(O)[C@@H](C=C(CO)C[C@]3(O)C(=O)C(C)=C[C@@H]23)[C@@H]2C(C)(C)[C@]12OC(C)=O [PMA, phorbol 12-myristate 13-acetate]			d2GFP noise (HIV-1 LTR promoter [1]): decrease both mCherry and d2GFP noise; mCherry noise (HIV-1 LTR promoter [1]): decrease both mCherry and d2GFP noise; transcriptional burst frequency (decreasing noise in mCherry) (HIV-1 LTR promoter [1]): increase transcriptional burst frequency; burst frequency (HIV-1 LTR promoter [2]): increase burst frequency; mean expression level (HIV-1 LTR promoter [2]): increase mean expression level; variability in gene expression (noise magnitude) (HIV-1 LTR promoter [2]): decrease variability in gene expression; also recorded: decrease noise magnitude
O=C(O)CCCc1ccccc1 [V59, phenylbutyric acid]		synergized	identified as variability enhancer (VE) in noise screen (HIV-1 LTR promoter [2]): variability enhancers
Cc1cccc(C)c1N=C1NCCCS1 [V29, Xylazine hydrochloride]	variability enhancers	synergized	
CCC(=O)O[C@]1(C(=O)CCl)[C@@H](C)C[C@H]2[C@@H]3CCC4=CC(=O)C=C[C@]4(C)[C@@]3(F)[C@@H](O)C[C@@]21C [V94, clobetasol propionate]	variability enhancers	synergized	
CC(C)(C)NC(=O)[C@H]1CC[C@H]2[C@@H]3CC[C@H]4NC(=O)C=C[C@]4(C)[C@H]3CC[C@]12C [V37, finasteride]	variability enhancers	synergized	
CC1=C(C(=O)O)N2C(=O)[C@@H](NC(=O)[C@H](N)c3ccc(O)cc3)[C@H]2SC1 [V40, cefadroxil]	variability enhancers	synergized	
CCCCC(CC)COc1ccc(-c2nc(-c3ccc(OC)cc3)nc(-c3ccc(OCC(CC)CCCC)cc3O)n2)c(O)c1 (centres unmarked) [V98, bemotrizinol]	variability enhancers	synergized	
CC(C)[C@H](N)C(=O)OCC(CO)OCn1cnc2c(=O)nc(N)[nH]c21 (some centres unmarked) [V80, valganciclovir hydrochloride]	variability enhancers	synergized	
COc1ccc(-c2ccc3cc(C(=O)O)ccc3c2)cc1C12CC3CC(CC(C3)C1)C2 [V36, adapalene]	variability enhancers	synergized	
Cc1ccc(S(=O)(=O)NC(=O)NN2CCCCCC2)cc1 [V51, Tolazamide]	variability enhancers	synergized	
CC(C)(CO)[C@@H](O)C(=O)NCCC(=O)[O-].[Na+] [V22, pantothenic acid(d) na salt]		synergized	identified as variability enhancer (VE) in noise screen (HIV-1 LTR promoter [2]): variability enhancers
NCCc1cc(O)c(O)cc1O [V25, oxidopamine hydrochloride]	variability enhancers	synergized	
NC(=O)C[S+]([O-])C(c1ccccc1)c1ccccc1 (centres unmarked) [V28, modafinil]	variability enhancers	synergized	
COc1ccccc1O [V92, guaiacol]	variability enhancers	synergized	
COc1c(C)c2c(c(O)c1C/C=C(\C)CCC(=O)O)C(=O)OC2 [V95, mycophenolic acid]	variability enhancers	synergized	
CC(=O)OCC(=O)[C@@]1(O)CC[C@H]2[C@@H]3CCC4=CC(=O)CC[C@]4(C)[C@@]3(F)[C@@H](O)C[C@@]21C [V96, fludrocortisone acetate]		synergized	identified as variability enhancer (VE) in noise screen (HIV-1 LTR promoter [2]): variability enhancers
CCN(CC)CCNC(=O)c1ccc(N)cc1 [V38, Procainamide hydrochloride]	variability enhancers	synergized	
